In paper PMC5517430, “2,3,7,8-Tetrachlorodibenzo-p-dioxin (TCDD)-elicited effects on bile acid homeostasis: Alterations in biosynthesis, enterohepatic circulation, and microbial metabolism” (Scientific Reports, 2017):

Tests used:
[1] = system: gallbladder of male C57BL/6 mice; test: Gallbladder volume (micro-caliper, ellipsoid); assay type: in vivo, mouse; details: 30 µg/kg TCDD every 4 d for 28 d
Method: (§1) At 25d after the initial dose (PND53), fecal pellets from the previous 24 hours (h) were collected from each cage (4 mice per cage) and stored at −80 °C. At 28d after the initial exposure (PND56), mice (fasted for 6 h) were weighed and blood was collected from the submandibular vein prior to cervical dislocation. The gallbladder length, width, and depth were measured using a micro-caliper. Its volume was calculated assuming an ellipsoid shape: volume (µL) = length (mm) × width (mm) × depth (mm) × π/6[63], [64]. The distal ileum (10 cm section extending from the caecum toward the jejunum) was removed, flushed with Ca^2+/Mg^2+-free phosphate buffered saline (PBS; Sigma), and opened longitudinally. The epithelial lining was scraped into a vial containing TRIzol (Invitrogen, Carlsbad, CA), frozen in liquid nitrogen, and stored at −80 °C. Liver, gonadal white adipose tissue (gWAT), and brown adipose tissue were removed, weighed, frozen in liquid nitrogen, and stored at −80 °C. Serum alkaline phosphatase (ALP) activity was determined using a commercial kit (Pointe Scientific, Canton, MI).

serum ALP = test: Serum alkaline phosphatase (ALP) activity, commercial kit; assay type: in vivo, mouse; details: male mice, 30 µg/kg TCDD every 4 d for 28 d
Method: as §1

Gpbar1 = test: Hepatic qRT-PCR; assay type: in vivo; details: Mus musculus; male mice, 30 µg/kg TCDD every 4 d for 28 d; read-out: Gpbar1 hepatic expression (qRT-PCR), fold induction
Method: Given the low (≤10) read counts for Gpbar1 in the RNA-Seq dataset, differential expression was confirmed by qRT-PCR[13]. Total hepatic RNA was reverse transcribed by SuperScript II (Invitrogen) using oligo dT primer according to the manufacturer’s protocol. PCR amplification was conducted on a Bio-Rad CFX Connect Real-Time PCR Detection System. Gene expression relative to vehicle control was calculated using the 2^−∆∆CT method, where each sample was normalized to the geometric mean of 3 housekeeping genes (Actb, Gapdh, and Hprt). Gene expression data are plotted relative to vehicle control. Forward and reverse primer sequences are provided in Supplementary Table S2.

[2] = system: intestine of male C57BL/6 mice; test: Sugar probe intestinal para-cellular permeability (UPLC-MS/MS of urine); assay type: in vivo, mouse; details: 30 µg/kg TCDD every 4 d, 26 d after initial dose
Method: At 26d after the initial dose (PND54), mice were fasted for 4 h (without access to food or water) prior to oral gavage with 150 µL of a solution containing 100 mg sucrose, 12 mg lactulose, 8 mg mannitol, and 6 mg sucralose. Urine from each mouse was collected over a 5 h period, flash frozen, and combined prior to analysis. Urine was diluted in 95% acetonitrile/5% water: 100-fold for mannitol detection, 200-fold for sucrose and lactulose detection, and 500-fold for sucralose detection. Sugar probe recovery was measured using ultra high performance liquid chromatography-tandem mass spectrometry (UPLC-MS/MS), performed at the MSU RTSF Mass Spectrometry and Metabolomics Core (https://rtsf.natsci.msu.edu/mass-spectrometry/). Diluted urine samples were injected onto an Acquity UPLC BEH Amide column (1.7 µm, 2.1 × 100 mm) (Waters, Milford, MA) maintained at 50 °C on a Waters ACQUITY UPLC systems (Waters). Mobile phase A was 50 mM ammonium acetate buffer (pH = 9.6) and mobile phase B was acetonitrile. […]
Data analysis including peak integration was performed using MAVEN[75]. […] Fractional excretion of each probe was calculated using: (probe concentration from MS X total urine volume excreted)/probe input. […]

hepatic cholesterol = system: hepatic cholesterol; design: method as in PMID 28238261; details: male C57BL/6 mice, 30 µg/kg TCDD every 4 d for 28 d, cited from earlier work
[3] = design: method as in PMID 19660807, PMID 8145287; details: humans; cited from earlier work

## Clc1cc2c(cc1Cl)Oc1cc(Cl)c(Cl)cc1O2 [TCDD, 2,3,7,8-tetrachlorodibenzo-p-dioxin]
[1]
  Gallbladder volume, fold increase compared to controls: 2.5 fold
Serum ALP
  Serum alkaline phosphatase (ALP) activity: unchanged
Gpbar1
  fold induction at 0.03 mg/kg: 4.3
[2]
  Permeability of the small intestine (lactulose-to-mannitol ratio): unaffected
Hepatic cholesterol
  Hepatic cholesterol ester level, fold increase: 11.3 fold
Hepatic cholesterol; not confirmed by high resolution MS/MS
  Hepatic cholesterol level, fold increase: 9.0 fold
[3]
  Half-life: 1–11 years
